From patent US20230085307A1, “PYRIDAZINONE COMPOUND AND HERBICIDE” (NISSAN CHEMICAL CORPORATION, priority 2019, published 2023)

Each molecule was assayed on lambsquarters (assay: Test Example 5: herbicidal effect by foliage application, plastic box (Table 20, symbol O)). Details: 320 g/ha, foliage application after 14-day growth, evaluated three weeks after application.
Format: in vivo, lambsquarters (Chenopodium album)
In short: (§1)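 Post-emergence foliar test in sterilized diluvial soil. Compound applied as water-diluted emulsion at a predetermined rate to 14-day-old plants; evaluation at three weeks.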

| SMILES | herbicidal effect on O: lambsquarters (evaluation grade 0-5) |
| --- | --- |
| CCCC(=O)Oc1c(C)nn(C)c(=O)c1-c1c(-c2ccc(OC(F)(F)F)cc2)sc2cc(Cl)ccc12 [3-150] | 4 (Herbicidal rate of 70% or more and less than 90%) |

Each molecule was assayed on chickweed (assay: Test Example 5: herbicidal effect by foliage application, plastic box (Table 20, symbol P)). Details: 320 g/ha, foliage application after 14-day growth, evaluated three weeks after application.
Format: in vivo, common chickweed (Stellaria media)
In short: as §1

| SMILES | herbicidal effect on P: chickweed (evaluation grade 0-5) |
| --- | --- |
| CCCC(=O)Oc1c(C)nn(C)c(=O)c1-c1c(-c2ccc(OC(F)(F)F)cc2)sc2cc(Cl)ccc12 [3-150] | 3 (Herbicidal rate of 40% or more and less than 70%) |

These molecules were tested on Chinese sprangletop (assay: Test Example 3: herbicidal effect by foliage application, Wagner pot (Table 18, symbol D)). Details: 320 g/ha.
Format: in vivo, chinese sprangletop (Leptochloa chinensis)
In short: (§2)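 Plants were sown in alluvial soil held under 0.1–0.5 cm standing water and grown 14 days in a greenhouse at 25–30 °C. An emulsifiable formulation, water-diluted to the set dose, was then sprayed onto the foliage, and effects were scored three weeks later using previously defined criteria.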

| SMILES | herbicidal effect on Chinese sprangletop (D) |
| --- | --- |
| CCCC(=O)Oc1c(C)nn(C)c(=O)c1-c1c(-c2ccc(OC(F)(F)F)cc2)sc2cc(Cl)ccc12 [3-150] | 3 (Herbicidal rate of 40% or more and less than 70%) |

What follows are molecules tested on blackgrass (assay: Test Example 5: herbicidal effect by foliage application, plastic box (Table 20, symbol J)). Details: 320 g/ha, foliage application after 14-day growth, evaluated three weeks after application.
Format: in vivo, blackgrass (Alopecurus myosuroides)
In short: as §1

| SMILES | herbicidal effect on J: blackgrass (evaluation grade 0-5) |
| --- | --- |
| CCCC(=O)Oc1c(C)nn(C)c(=O)c1-c1c(-c2ccc(OC(F)(F)F)cc2)sc2cc(Cl)ccc12 [3-150] | 0 (Herbicidal rate of 5% or less (almost no effect)) |

What follows are molecules tested on southern crabgrass (assay: Test Example 5: herbicidal effect by foliage application, plastic box (Table 20, symbol F)). Details: 320 g/ha, foliage application after 14-day growth, evaluated three weeks after application.
Format: in vivo, southern crabgrass (Digitaria ciliaris)
In short: as §1

| SMILES | herbicidal effect on F: southern crabgrass (evaluation grade 0-5) |
| --- | --- |
| CCCC(=O)Oc1c(C)nn(C)c(=O)c1-c1c(-c2ccc(OC(F)(F)F)cc2)sc2cc(Cl)ccc12 [3-150] | 0 (Herbicidal rate of 5% or less (almost no effect)) |

Each molecule was assayed on wild oat (assay: Test Example 5: herbicidal effect by foliage application, plastic box (Table 20, symbol I)). Details: 320 g/ha, foliage application after 14-day growth, evaluated three weeks after application.
Format: in vivo, wild oat (Avena fatua)
In short: as §1

| SMILES | herbicidal effect on I: wild oat (evaluation grade 0-5) |
| --- | --- |
| CCCC(=O)Oc1c(C)nn(C)c(=O)c1-c1c(-c2ccc(OC(F)(F)F)cc2)sc2cc(Cl)ccc12 [3-150] | 0 (Herbicidal rate of 5% or less (almost no effect)) |

The molecules below were run on Italian ryegrass (assay: Test Example 5: herbicidal effect by foliage application, plastic box (Table 20, symbol K)). Details: 320 g/ha, foliage application after 14-day growth, evaluated three weeks after application.
Format: in vivo, Italian ryegrass (Lolium multiflorum)
In short: as §1

| SMILES | herbicidal effect on K: Italian ryegrass (evaluation grade 0-5) |
| --- | --- |
| CCCC(=O)Oc1c(C)nn(C)c(=O)c1-c1c(-c2ccc(OC(F)(F)F)cc2)sc2cc(Cl)ccc12 [3-150] | 0 (Herbicidal rate of 5% or less (almost no effect)) |

Each molecule was assayed on barnyard grass (assay: Test Example 5: herbicidal effect by foliage application, plastic box (Table 20, symbol H)). Details: 320 g/ha, foliage application after 14-day growth, evaluated three weeks after application.
Format: in vivo, barnyard grass (Echinochloa crus-galli)
In short: as §1

| SMILES | herbicidal effect on H: barnyard grass (evaluation grade 0-5) |
| --- | --- |
| CCCC(=O)Oc1c(C)nn(C)c(=O)c1-c1c(-c2ccc(OC(F)(F)F)cc2)sc2cc(Cl)ccc12 [3-150] | 3 (Herbicidal rate of 40% or more and less than 70%) |

What follows are molecules tested on persian speedwell (assay: Test Example 5: herbicidal effect by foliage application, plastic box (Table 20, symbol R)). Details: 320 g/ha, foliage application after 14-day growth, evaluated three weeks after application.
Format: in vivo, Persian speedwell (Veronica persica)
In short: as §1

| SMILES | herbicidal effect on R: persian speedwell (evaluation grade 0-5) |
| --- | --- |
| CCCC(=O)Oc1c(C)nn(C)c(=O)c1-c1c(-c2ccc(OC(F)(F)F)cc2)sc2cc(Cl)ccc12 [3-150] | 5 (Herbicidal rate of 90% or more (almost completely withered)) |

What follows are molecules tested on velvetleaf (assay: Test Example 5: herbicidal effect by foliage application, plastic box (Table 20, symbol M)). Details: 320 g/ha, foliage application after 14-day growth, evaluated three weeks after application.
Format: in vivo, velvetleaf (Abutilon theophrasti)
In short: as §1

| SMILES | herbicidal effect on M: velvetleaf (evaluation grade 0-5) |
| --- | --- |
| CCCC(=O)Oc1c(C)nn(C)c(=O)c1-c1c(-c2ccc(OC(F)(F)F)cc2)sc2cc(Cl)ccc12 [3-150] | 2 (Herbicidal rate of 20% or more and less than 40%) |

These molecules were tested on barnyard grass (assay: Test Example 3: herbicidal effect by foliage application, Wagner pot (Table 18, symbol H)). Details: 320 g/ha.
Format: in vivo, barnyard grass (Echinochloa crus-galli)
In short: as §2

| SMILES | herbicidal effect on barnyard grass (H) |
| --- | --- |
| CCCC(=O)Oc1c(C)nn(C)c(=O)c1-c1c(-c2ccc(OC(F)(F)F)cc2)sc2cc(Cl)ccc12 [3-150] | 5 (Herbicidal rate of 90% or more (almost completely withered)) |

Each molecule was assayed on windgrass (assay: Test Example 5: herbicidal effect by foliage application, plastic box (Table 20, symbol L)). Details: 320 g/ha, foliage application after 14-day growth, evaluated three weeks after application.
Format: in vivo, windgrass (Apera spica-venti)
In short: as §1

| SMILES | herbicidal effect on L: windgrass (evaluation grade 0-5) |
| --- | --- |
| CCCC(=O)Oc1c(C)nn(C)c(=O)c1-c1c(-c2ccc(OC(F)(F)F)cc2)sc2cc(Cl)ccc12 [3-150] | 0 (Herbicidal rate of 5% or less (almost no effect)) |

What follows are molecules tested on redroot pigweed (assay: Test Example 5: herbicidal effect by foliage application, plastic box (Table 20, symbol N)). Details: 320 g/ha, foliage application after 14-day growth, evaluated three weeks after application.
Format: in vivo, redroot pigweed (Amaranthus retroflexus)
In short: as §1

| SMILES | herbicidal effect on N: redroot pigweed (evaluation grade 0-5) |
| --- | --- |
| CCCC(=O)Oc1c(C)nn(C)c(=O)c1-c1c(-c2ccc(OC(F)(F)F)cc2)sc2cc(Cl)ccc12 [3-150] | 3 (Herbicidal rate of 40% or more and less than 70%) |

Each molecule was assayed on rice flat sedge (assay: Test Example 3: herbicidal effect by foliage application, Wagner pot (Table 18, symbol E)). Details: 320 g/ha.
Format: in vivo, rice flat sedge (Cyperus iria)
In short: as §2

| SMILES | herbicidal effect on rice flat sedge (E) |
| --- | --- |
| CCCC(=O)Oc1c(C)nn(C)c(=O)c1-c1c(-c2ccc(OC(F)(F)F)cc2)sc2cc(Cl)ccc12 [3-150] | 2 (Herbicidal rate of 20% or more and less than 40%) |

What follows are molecules tested on green foxtail (assay: Test Example 5: herbicidal effect by foliage application, plastic box (Table 20, symbol G)). Details: 320 g/ha, foliage application after 14-day growth, evaluated three weeks after application.
Format: in vivo, green foxtail (Setaria viridis)
In short: as §1

| SMILES | herbicidal effect on G: green foxtail (evaluation grade 0-5) |
| --- | --- |
| CCCC(=O)Oc1c(C)nn(C)c(=O)c1-c1c(-c2ccc(OC(F)(F)F)cc2)sc2cc(Cl)ccc12 [3-150] | 0 (Herbicidal rate of 5% or less (almost no effect)) |
